Reference: PMC6364417, “Kinase inhibitor library screening identifies synergistic drug combinations effective in sensitive and resistant melanoma cells” (Journal of Experimental & Clinical Cancer Research : CR, 2019)
Read-outs that look alike come from different tables or passages of the source.

Columns and labels:
Experiment in all cases: Kinase inhibitor library screening, PrestoBlue cell viability, 1 or 10 μM, 72 h
[1] = test system: IGR37 cells (parental); conditions: for Cell viability in kinase inhibitor library screening, IGR37 Parental, 1μΜ / Cell viability in kinase inhibitor library screening, IGR37 Parental, 10μΜ: in %
[2] = test system: A375-GP cells (Dabrafenib-resistant)
[3] = test system: A375 cells (parental)
[4] = test system: A375-XP cells (Vemurafenib-resistant)
[5] = test system: IGR37-GP cells (Dabrafenib-resistant); conditions: for Cell viability in kinase inhibitor library screening, IGR37 GP, 1μΜ: in %
[6] = test system: 501Mel cells (parental); conditions: for Cell viability in kinase inhibitor library screening, 501Mel Parental, 1μΜ / Cell viability in kinase inhibitor library screening, 501Mel Parental, 10μΜ: in %
Summary of the method: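 Values are % viability versus untreated wells, measured by PrestoBlue after a 72 h drug exposure. Screens covered the parental line plus sublines rendered resistant to Vemurafenib or Dabrafenib, each analysed in at least duplicate.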

[7] = test system: 501Mel-XP cells (Vemurafenib-resistant); conditions: for Cell viability in kinase inhibitor library screening, 501Mel XP, 1μΜ / Cell viability in kinase inhibitor library screening, 501Mel XP, 10μΜ: in %
[8] = test system: 501Mel-GP cells (Dabrafenib-resistant); conditions: for Cell viability in kinase inhibitor library screening, 501Mel GP, 1μΜ / Cell viability in kinase inhibitor library screening, 501Mel GP, 10μΜ: in %
[9] = test system: IGR37-XP cells (Vemurafenib-resistant); conditions: for Cell viability in kinase inhibitor library screening, IGR37 XP, 1μΜ: in %

Row | SMILES | Cell viability in kinase inhibitor library screening, IGR37 Parental, 1μΜ ([1]; IGR37 Parental, 1μΜ, 72 h) | Cell viability in kinase inhibitor library screening, IGR37 Parental, 10μΜ ([1]; IGR37 Parental, 10μΜ, 72 h) | Cell viability in kinase inhibitor library screening, A375 GP, 1μΜ ([2]; A375 GP, 1μΜ, 72 h) | Cell viability in kinase inhibitor library screening, A375 GP, 10μΜ ([2]; A375 GP, 10μΜ, 72 h) | Cell viability in kinase inhibitor library screening, A375 Parental, 10μΜ ([3]; A375 Parental, 10μΜ, 72 h) | Cell viability in kinase inhibitor library screening, A375 Parental, 1μΜ ([3]; A375 Parental, 1μΜ, 72 h) | Cell viability in kinase inhibitor library screening, A375 XP, 1μΜ ([4]; A375 XP, 1μΜ, 72 h) | Cell viability in kinase inhibitor library screening, A375 XP, 10μΜ ([4]; A375 XP, 10μΜ, 72 h) | Cell viability in kinase inhibitor library screening, IGR37 GP, 10μΜ ([5]; IGR37 GP, 10μΜ, 72 h) | Cell viability in kinase inhibitor library screening, IGR37 GP, 1μΜ ([5]; IGR37 GP, 1μΜ, 72 h) | Cell viability in kinase inhibitor library screening, 501Mel Parental, 1μΜ ([6]; 501Mel Parental, 1μΜ, 72 h) | Cell viability in kinase inhibitor library screening, 501Mel Parental, 10μΜ ([6]; 501Mel Parental, 10μΜ, 72 h) | Cell viability in kinase inhibitor library screening, 501Mel XP, 1μΜ ([7]; 501Mel XP, 1μΜ, 72 h) | Cell viability in kinase inhibitor library screening, 501Mel XP, 10μΜ ([7]; 501Mel XP, 10μΜ, 72 h) | Cell viability in kinase inhibitor library screening, 501Mel GP, 1μΜ ([8]; 501Mel GP, 1μΜ, 72 h) | Cell viability in kinase inhibitor library screening, 501Mel GP, 10μΜ ([8]; 501Mel GP, 10μΜ, 72 h) | Cell viability in kinase inhibitor library screening, IGR37 XP, 10μΜ ([9]; IGR37 XP, 10μΜ, 72 h) | Cell viability in kinase inhibitor library screening, IGR37 XP, 1μΜ ([9]; IGR37 XP, 1μΜ, 72 h) | also measured
1 | CO[C@H]1C[C@@H]2CC[C@@H](C)[C@@](O)(O2)C(=O)C(=O)N2CCCC[C@H]2C(=O)O[C@H]([C@H](C)C[C@@H]2CC[C@@H](O)[C@H](OC)C2)CC(=O)[C@H](C)/C=C(\C)[C@@H](O)[C@@H](OC)C(=O)[C@H](C)C[C@H](C)/C=C/C=C/C=C/1C [Rapamycin (Sirolimus)] | 79.9 | 81.5 | 80.8 | 79.4 | 72.3 | 80.2 | 79.4 | 83.3 | 76.7% | 92.2 | 84.7 | 77.5 | 56.7 | 42.7 | 69.9 | 59.4 | 49.9% | 96.0 | –
2 | Cn1c(=O)n(-c2ccc(C(C)(C)C#N)cc2)c2c3cc(-c4cnc5ccccc5c4)ccc3ncc21 [BEZ235 (NVP-BEZ235)] | 26.1 | 12.4 | 22.0 | 8.5 | 10.9 | 23.9 | 20.9 | 13.2 | 6.1% | 53.8 | 13.9 | 2.6 | 11.4 | 0.9 | 19.1 | 6.4 | 5.2% | 49.3 | –
3 | COc1ccc(S(=O)(=O)N(C(C)=O)c2ccccc2/C=C/c2cc[n+]([O-])cc2)cc1 [HMN-214] | – | – | – | – | – | – | – | – | – | – | – | – | – | – | – | – | – | – | Cell viability in kinase inhibitor library screening, IGR37 Parental, 1μΜ [1]: 19.8; Cell viability in kinase inhibitor library screening, IGR37 Parental, 10μΜ [1]: 16.1; Cell viability in kinase inhibitor library screening, A375 GP, 1μΜ [2]: 42.6; Cell viability in kinase inhibitor library screening, A375 GP, 10μΜ [2]: 20.9; Cell viability in kinase inhibitor library screening, A375 Parental, 1μΜ [3]: 34.0; Cell viability in kinase inhibitor library screening, A375 Parental, 10μΜ [3]: 23.3; Cell viability in kinase inhibitor library screening, A375 XP, 1μΜ [4]: 37.9; Cell viability in kinase inhibitor library screening, A375 XP, 10μΜ [4]: 18.1; Cell viability in kinase inhibitor library screening, IGR37 GP, 10μΜ [5]: 66.9%; Cell viability in kinase inhibitor library screening, IGR37 GP, 1μΜ [5]: 69.1; Cell viability in kinase inhibitor library screening, 501Mel Parental, 1μΜ [6]: 17.6; Cell viability in kinase inhibitor library screening, 501Mel Parental, 10μΜ [6]: 20.7; Cell viability in kinase inhibitor library screening, 501Mel XP, 1μΜ [7]: 14.9; Cell viability in kinase inhibitor library screening, 501Mel XP, 10μΜ [7]: 12.4; Cell viability in kinase inhibitor library screening, 501Mel GP, 1μΜ [8]: 21.4; Cell viability in kinase inhibitor library screening, 501Mel GP, 10μΜ [8]: 22.7; Cell viability in kinase inhibitor library screening, IGR37 XP, 10μΜ [9]: 28.3%; Cell viability in kinase inhibitor library screening, IGR37 XP, 1μΜ [9]: 57.1
4 | CC(C)NC[C@@H](C(=O)N1CCN(c2ncnc3c2[C@H](C)C[C@H]3O)CC1)c1ccc(Cl)cc1 [GDC-0068] | – | – | – | – | – | – | – | – | – | – | – | – | – | – | – | – | – | – | cell viability (kinase inhibitor library screening) ([1]; IGR37 Parental, 1μΜ, 72 h): 102.7%; cell viability (kinase inhibitor library screening) ([1]; IGR37 Parental, 10μΜ, 72 h): 90.8%; cell viability (kinase inhibitor library screening) ([2]; A375 GP, 10μΜ, 72 h): 79.9%; cell viability (kinase inhibitor library screening) ([3]; A375 Parental, 10μΜ, 72 h): 77.7%; cell viability (kinase inhibitor library screening) ([3]; A375 Parental, 1μΜ, 72 h): 104.3%; cell viability (kinase inhibitor library screening) ([4]; A375 XP, 10μΜ, 72 h): 85.5%; cell viability (kinase inhibitor library screening) ([5]; IGR37 GP, 1μΜ, 72 h): 97.0%; cell viability (kinase inhibitor library screening) ([5]; IGR37 GP, 10μΜ, 72 h): 79.0%; cell viability (kinase inhibitor library screening) ([6]; 501Mel Parental, 1μΜ, 72 h): 103.4%; cell viability (kinase inhibitor library screening) ([6]; 501Mel Parental, 10μΜ, 72 h): 81.6%; cell viability (kinase inhibitor library screening) ([7]; 501Mel XP, 1μΜ, 72 h): 85.0%; cell viability (kinase inhibitor library screening) ([7]; 501Mel XP, 10μΜ, 72 h): 36.9%; cell viability (kinase inhibitor library screening) ([8]; 501Mel GP, 1μΜ, 72 h): 92.7%; cell viability (kinase inhibitor library screening) ([8]; 501Mel GP, 10μΜ, 72 h): 56.7%; cell viability (kinase inhibitor library screening) ([9]; IGR37 XP, 1μΜ, 72 h): 95.3%; cell viability (kinase inhibitor library screening) ([9]; IGR37 XP, 10μΜ, 72 h): 23.8%
5 | Cc1ccc(-n2nc(C(C)(C)C)cc2NC(=O)Nc2ccc(OCCN3CCOCC3)c3ccccc23)cc1 [BIRB 796 (Doramapimod)] | – | 97.2 | 103.9 | 76.2 | 86.4 | 99.9 | – | 85.3 | 78.5% | 89.9 | 96.5 | 84.9 | 98.8 | 86.9 | 105.5 | 94.6 | 71.3% | 94.7 | –
6 | Nc1ccc(C(=O)Nc2cccc(-c3nc(N4CCOCC4)c4oc5ncccc5c4n3)c2)cn1 [YM201636] | 90.0 | 53.4 | 96.0 | 53.2 | 56.6 | 99.8 | 100.1 | 52.8 | 3.3% | 56.3 | – | 44.1 | 91.0 | 17.1 | – | 31.8 | 1.2% | 35.0 | –
